Data published in paper PMC4914996, “Elimination of a ligand gating site generates a supersensitive olfactory receptor” (Scientific Reports, 2016).
Where a chain is given by its changes, count along the chain named. Like-named read-outs stand apart in the source and are kept apart here.

What was measured:
Experiment in all cases: Fluo-4 Ca2+ influx through cAMP-gated CNG channel in stable HEK293 line
[1] = target: T1, TAAR13c (Danio rerio, UniProt Q5QNP2); format: cell-based
T1 sequence (Q5QNP2 1-341): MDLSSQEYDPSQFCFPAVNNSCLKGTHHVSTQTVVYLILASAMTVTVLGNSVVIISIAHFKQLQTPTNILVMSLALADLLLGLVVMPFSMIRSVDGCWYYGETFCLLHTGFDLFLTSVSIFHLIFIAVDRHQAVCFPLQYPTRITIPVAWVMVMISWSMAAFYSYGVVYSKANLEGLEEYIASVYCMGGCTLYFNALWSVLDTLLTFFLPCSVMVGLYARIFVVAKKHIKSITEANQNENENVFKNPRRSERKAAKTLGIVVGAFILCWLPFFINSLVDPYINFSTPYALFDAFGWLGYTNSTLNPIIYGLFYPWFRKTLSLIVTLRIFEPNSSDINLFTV
Text: (§1) Fluo-4 Ca2+ influx through cAMP-gated CNG channel in stable HEK293 line on TAAR13c

[2] = target: T2, TAAR13c (Danio rerio, UniProt Q5QNP2, D279A); format: cell-based
T2 sequence (Q5QNP2 1-341 D279A): T1 sequence (Q5QNP2 1-341) with D279A
Text: as §1

[3] = target: T3, TAAR13c (Danio rerio, UniProt Q5QNP2, D279E); format: cell-based
T3 sequence (Q5QNP2 1-341 D279E): T1 sequence (Q5QNP2 1-341) with D279E
Text: as §1

[4] = target: T4, TAAR13c (Danio rerio, UniProt Q5QNP2, D279N); format: cell-based
T4 sequence (Q5QNP2 1-341 D279N): T1 sequence (Q5QNP2 1-341) with D279N
Text: as §1

[5] = target: T5, TAAR13c (Danio rerio, UniProt Q5QNP2, D78E); format: cell-based
T5 sequence (Q5QNP2 1-341 D78E): T1 sequence (Q5QNP2 1-341) with D78E
Text: as §1

[6] = target: T6, TAAR13c (Danio rerio, UniProt Q5QNP2, W296Y); format: cell-based
T6 sequence (Q5QNP2 1-341 W296Y): T1 sequence (Q5QNP2 1-341) with W296Y
Text: as §1

[7] = target: T7, TAAR13c (Danio rerio, UniProt Q5QNP2, W296F); format: cell-based, Homo sapiens
T7 sequence (Q5QNP2 1-341 W296F): T1 sequence (Q5QNP2 1-341) with W296F
Text: as §1

[8] = target: T8, TAAR13c (Danio rerio, UniProt Q5QNP2, W296G); format: cell-based; details: read-out: EC50 (μM, mean±SEM) / cad
T8 sequence (Q5QNP2 1-341 W296G): T1 sequence (Q5QNP2 1-341) with W296G
Text: as §1

[9] = read-out: EC50 (μM, mean±SEM) / put
[10] = read-out: EC50 (μM, mean±SEM) / cad

Structure (SMILES)	EC50 [1, 9] [µM]	EC50 [2, 9] [µM]	EC50 [3, 9] [µM]	EC50 [4, 9] [µM]	EC50 [5, 9] [µM]	EC50 [6, 9] [µM]	EC50 [7, 9] [µM]	EC50 [1, 10] [µM]	EC50 [2, 10] [µM]	EC50 [3, 10] [µM]	EC50 [4, 10] [µM]	EC50 [5, 10] [µM]	EC50 [8] [µM]	EC50 [6, 10] [µM]	EC50 [7, 10] [µM]
NCCCCN [putrescine]	> 1000	31 ± 13	10 ± 4	7.3 ± 3.6	> 1000	> 1000	> 1000	–	–	–	–	–	–	–	–
NCCCCCN [cadaverine]	–	–	–	–	–	–	–	15.2 ± 2.2	2.1 ± 1	0.72 ± 0.24	1.1 ± 0.8	64 ± 28	55 ± 48	28 ± 8	42 ± 6
